# Key:
# in vitro = settings: rat, microsomes
# Procedure: 10 mM stock solutions of the test compounds in DMSO were prepared, diluted with acetonitrile and then with PBS, and vortexed, with the DMSO content controlled at 0.1%. The dilute working solutions (10 µL) were incubated with 65 µL of a liver microsome system (30 µL of 100 mM PBS, 25 µL of 20 mM MgCl2, and 10 µL of 5 mg/mL RLMs) and preheated at 37 °C for 5 min. 25 µL of 4 mM NADPH was added to start a reaction. Samples were taken at different time points (0 min, 5 min, 15 min, 30 min, 60 min, and 120 min), and an acetonitrile solution containing an internal standard was added to stop the reaction. After vortexing and centrifugation, the supernatants were collected and analyzed by LC-MS/MS, and the half-lives and clearance rates were calculated.
# U937 = test: Antiproliferative activity against tumor cells (CCK8), U937; assay type: cell-based; settings: Homo sapiens, U-937, 72 hours
# Procedure: (§1) U937, MOLM-13, and MV4-11 cells (ATCC) in the logarithmic growth phase were separately diluted in a culture medium and plated onto 96-well plates at 5000 cells/well, and the plates were incubated in an incubator at 37 °C with 5% CO2 for 24 hours. 10 mM stock solutions of the compounds in DMSO were prepared and diluted with the culture medium to set 9 concentration gradients. Three replicate wells were set for each concentration. After compound addition, the plates were incubated in an incubator at 37 °C with 5% CO2 for 72 hours. The cell proliferation was assessed using the CCK8 method. The cell growth inhibition IC50 values of the compounds were determined using an enzyme labeling method. The IC50 values were calculated using GraphPad Prism 7 software.
# (§2) The antiproliferative activity of the compounds against the tumor cells is shown in Table 3, where A represents IC50 < 1 nM, B represents 1 ≤ IC50 < 10 nM, C represents 10 nM ≤ IC50 < 100 nM, D represents 100 nM ≤ IC50 < 1000 nM, and E represents IC50 ≥ 1000 nM. Table 3. The antiproliferative activity of compounds against tumor cells
# KG-1 cells = test: Antiproliferative activity against KG-1 cells (CCK8); assay type: cell-based; settings: Homo sapiens, 72 hours
# How it was run: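 Cells seeded at 5000/well in RPMI + 10% FBS, grown 24 h at 37 °C/5% CO2, then exposed to a 9-point dilution series (triplicate wells) for 72 h. Viability read by CCK8; IC50 calculated from growth inhibition.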
# in vivo = settings: male, SD, rat
# Procedure: (§3) Sample collection and preparation: After SPF SD rats (male, 210-230 g, 42-48 days, RILD Liver) in a good growth state were dosed intravenously at 2 mg/kg and orally at 10 mg/kg, blood samples were collected via the orbit at different blood collection time points and transferred to centrifuge tubes containing an anticoagulant; the intravenous blood collection time points were 0.08 hours, 0.25 hours, 0.5 hours, 1 hour, 2 hours, 4 hours, 6 hours, 8 hours, and 24 hours, and the oral blood collection time points were 0.25 hours, 0.5 hours, 1 hour, 2 hours, 4 hours, 6 hours, 8 hours, and 24 hours. The blood samples were immediately centrifuged at 4 °C and 8000 rpm for 10 minutes, and the plasma was collected and stored in an ultra-low-temperature freezer at -80 °C until it was analyzed by LC-MS/MS. Pharmacokinetic data analysis: Pharmacokinetic parameters of the compounds were calculated using pharmacokinetic software in a non-compartmental model. The peak plasma concentration (Cmax) and the time to reach the peak plasma concentration (Tmax) were taken as observation values. Parameters such as the half-life T1/2, the areas under the plasma concentration-time curve AUClast and AUCinf, the apparent volume of distribution Vss, and the clearance rate CL were determined through regression analysis of the linear terminal portion of the logarithmic plasma concentration-time curve and the linear trapezoidal rule.
# GSPT1 protein = biological target: T1, GSPT1 protein (Homo sapiens, UniProt P15170+Q96SW2); test: Degradation of GSPT1 in KG-1 cells (Western blot); assay type: cell-based; settings: KG-1 cells, compound concentration 200 nM, 4 hours
# T1 construct: host or cells: KG-1 cells
# T1 sequence (P15170 whole entry): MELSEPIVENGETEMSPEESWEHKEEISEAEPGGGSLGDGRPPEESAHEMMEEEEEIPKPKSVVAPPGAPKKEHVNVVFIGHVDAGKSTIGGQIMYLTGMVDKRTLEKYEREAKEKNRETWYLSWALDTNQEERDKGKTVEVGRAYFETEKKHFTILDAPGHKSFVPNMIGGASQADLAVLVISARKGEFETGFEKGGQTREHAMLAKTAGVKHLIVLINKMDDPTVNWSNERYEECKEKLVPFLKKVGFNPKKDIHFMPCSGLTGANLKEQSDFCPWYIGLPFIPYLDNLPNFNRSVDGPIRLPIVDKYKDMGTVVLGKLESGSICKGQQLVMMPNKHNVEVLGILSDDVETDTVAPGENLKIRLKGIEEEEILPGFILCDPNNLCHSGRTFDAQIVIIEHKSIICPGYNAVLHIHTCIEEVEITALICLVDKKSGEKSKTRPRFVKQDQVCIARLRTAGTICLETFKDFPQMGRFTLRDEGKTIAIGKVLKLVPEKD
# T1 sequence (Q96SW2 whole entry): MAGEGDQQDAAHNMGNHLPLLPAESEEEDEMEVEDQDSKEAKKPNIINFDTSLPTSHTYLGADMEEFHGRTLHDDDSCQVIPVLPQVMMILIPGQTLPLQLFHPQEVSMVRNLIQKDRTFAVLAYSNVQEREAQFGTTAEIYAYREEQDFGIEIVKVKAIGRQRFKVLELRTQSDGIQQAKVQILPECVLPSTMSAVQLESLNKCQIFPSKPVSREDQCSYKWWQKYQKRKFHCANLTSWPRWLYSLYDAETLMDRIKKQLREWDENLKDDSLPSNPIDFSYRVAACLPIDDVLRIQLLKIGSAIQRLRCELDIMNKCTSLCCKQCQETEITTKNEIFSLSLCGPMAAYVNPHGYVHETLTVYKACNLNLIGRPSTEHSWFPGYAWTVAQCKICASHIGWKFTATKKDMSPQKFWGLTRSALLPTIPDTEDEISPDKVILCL
# T1 sequence (Q16531 whole entry partner): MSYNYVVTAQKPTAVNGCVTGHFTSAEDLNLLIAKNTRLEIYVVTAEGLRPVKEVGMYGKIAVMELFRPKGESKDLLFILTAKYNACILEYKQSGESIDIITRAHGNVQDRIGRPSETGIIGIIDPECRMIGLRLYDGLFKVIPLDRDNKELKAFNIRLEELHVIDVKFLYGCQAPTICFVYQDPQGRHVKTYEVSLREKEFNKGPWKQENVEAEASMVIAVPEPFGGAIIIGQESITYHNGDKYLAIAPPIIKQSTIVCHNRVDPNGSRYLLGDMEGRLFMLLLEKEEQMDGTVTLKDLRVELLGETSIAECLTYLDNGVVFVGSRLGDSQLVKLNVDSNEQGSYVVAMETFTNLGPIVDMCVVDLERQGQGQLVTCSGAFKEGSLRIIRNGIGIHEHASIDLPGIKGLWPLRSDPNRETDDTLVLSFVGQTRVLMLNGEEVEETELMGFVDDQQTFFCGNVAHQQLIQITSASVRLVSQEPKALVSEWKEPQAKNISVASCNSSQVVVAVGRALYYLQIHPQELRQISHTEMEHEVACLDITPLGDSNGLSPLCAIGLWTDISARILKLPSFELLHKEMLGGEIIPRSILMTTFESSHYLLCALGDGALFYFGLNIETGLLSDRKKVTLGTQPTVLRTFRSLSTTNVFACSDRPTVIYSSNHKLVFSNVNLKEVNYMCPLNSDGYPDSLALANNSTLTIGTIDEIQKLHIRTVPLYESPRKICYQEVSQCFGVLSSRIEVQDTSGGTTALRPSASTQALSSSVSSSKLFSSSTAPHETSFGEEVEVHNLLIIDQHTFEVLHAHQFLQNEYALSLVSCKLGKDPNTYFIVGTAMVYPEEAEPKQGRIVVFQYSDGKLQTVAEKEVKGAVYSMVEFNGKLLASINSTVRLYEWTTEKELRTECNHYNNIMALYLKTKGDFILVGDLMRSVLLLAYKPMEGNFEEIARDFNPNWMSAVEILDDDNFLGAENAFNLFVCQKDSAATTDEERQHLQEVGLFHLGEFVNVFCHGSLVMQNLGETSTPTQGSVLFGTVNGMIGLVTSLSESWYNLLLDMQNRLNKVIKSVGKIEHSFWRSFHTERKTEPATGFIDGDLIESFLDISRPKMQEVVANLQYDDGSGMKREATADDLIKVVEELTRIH
# MOLM-13 = test: Antiproliferative activity against tumor cells (CCK8), MOLM-13; assay type: cell-based; settings: Homo sapiens, MOLM-13 cells, 72 hours
# Procedure: as §1, §2
# MV4-11 = test: Antiproliferative activity against tumor cells (CCK8), MV4-11; assay type: cell-based; settings: Homo sapiens, MV4-11 cells, 72 hours
# Procedure: as §1, §2
# [1] = male, SD, rat, in vivo, po, 10 mg/kg
# Procedure: as §3
smiles,measurement,setting,value
O=C1CCC(N2Cc3cc(CNC(=O)C(F)(F)c4ccc(Cl)cc4)ccc3C2=O)C(=O)N1 (stereo not shown) [CC-90009],half-life,in vitro,1.29 h
same,microsomal CLint,in vitro,17.9 µL/min/mg
same,IC50,U937,10 to 100 nM
same,IC50,KG-1 cells,10 to 100 nM
same,AUC(0-inf),"in vivo; iv, 2 mg/kg",1200 ± 304 ng·h/mL
same,AUC(0-t),"in vivo; iv, 2 mg/kg",1200 ng·h/mL
same,C0,"in vivo; iv, 2 mg/kg",1870 ± 492 ng/mL
same,Vd,"in vivo; iv, 2 mg/kg",2.85 ± 0.63 L/kg
same,clearance,"in vivo; iv, 2 mg/kg",28.8 ± 6.4 mL/min/kg
same,half-life,"in vivo; iv, 2 mg/kg",1.44 ± 0.26 h
same,AUC(0-inf),"in vivo; po, 10 mg/kg",1896 ± 14 ng·h/mL
same,AUC(0-t),"in vivo; po, 10 mg/kg",1892 ± 12 ng·h/mL
same,Cmax,"in vivo; po, 10 mg/kg",616 ± 53 ng/mL
same,Tmax,"in vivo; po, 10 mg/kg",1.5 ± 0.71 h
same,half-life,"in vivo; po, 10 mg/kg",2.91 ± 0.28 h
same,percent GSPT1 degradation at 0.2 µM,GSPT1 protein,50 to 80%
same,IC50,MOLM-13,100 to 1000 nM
same,IC50,MV4-11,10 to 100 nM
same,F,[1],31.2±9.1%
